Patent US11236081B2, “Crystalline salts of corydalmine” (priority 2018, dated 2022)
Several values for one entry are separate records, joined by “and”; a condition that tells them apart may be missing. Equal values may be shown once.

Legend:
[1] = Dynamic vapor sorption (DVS), hygroscopicity at 25° C.; format: physicochemical
Protocol: Dynamic Vapor Sorption (DVS)
DVS was determined using DVS Intrinsic (SMS, UK). Transfer about 20 to 50 mg of the compound into a SMS dynamic vapor sorption model DVS and record the weight change with respect to a varying atmospheric humidity at 25° C.

[2] = Solubility studies in water at 2 hours; format: physicochemical
[3] = Pharmacokinetic study: plasma concentration and plasma PK parameters after IV/PO dosing (LC-MS/MS, WinNonlin); format: in vivo, Male SD Rat; settings: male SD rat, vehicle 20% HP-β-CD in water (POA, freebase) or water (salts)
Excerpt: Pharmacokinetic and Brain Penetration Study
Dose formulation processing during dosing: The dose formulations will be kept at room temperature.
Concentrations of Test Article in the plasma samples will be analyzed using a LC-MS/MS method.
WinNonlin (Phoenix™, version 6.1) or other similar software will be used for pharmacokinetic calculations. The following pharmacokinetic parameters will be calculated, whenever possible from the plasma concentration versus time data:
IV administration: T1/2, C0, AUClast, AUCinf, MRTinf, Cl, Vss, Number of Points for Regression.
PO administration: T1/2, Cmax, Tmax, MRTinf, AUCinf, AUClast, F %, Number of Points for Regression.
The pharmacokinetic data will be described using descriptive statistics such as mean, standard deviation.

[4] = PO 10 mg/kg (equal to freebase), plasma, individual rats, listed as TLZ-16 HC1, 10 mg/kg
[5] = PO 10 mg/kg (equal to freebase), plasma, mean n=3

SMILES: COc1cc2c(cc1OC)[C@@H]1Cc3ccc(O)c(OC)c3CN1CC2.Cl [TLZ-16 HCl]
- hygroscopicity (DVS) ([1]; DVS, 25° C.): slightly hygroscopic
- solid form after DVS test ([1]; after DVS test): does not change
- water absorbed in DVS ([1]; at 80% RH, 25° C.): about 0.57%
- solubility in water [2]: approximately 19.1 mg/mL
- F ([3]; PO 10 mg/kg (equal to freebase) vs IV 3 mg/kg freebase, individual rats, listed as TLZ-16 HC1): 35.9% and 20.7% and 24.7%
- F, Mean ([3]; PO 10 mg/kg (equal to freebase) vs IV 3 mg/kg freebase, mean n=3): 27.1%
- concentration in plasma ([3]; PO 10 mg/kg (equal to freebase), 0 h, individual rats): BLOQ (BLOQ = below limit of quantitation (0.2 ng/mL))
- concentration in plasma ([3]; PO 10 mg/kg (equal to freebase), 0.25 h, individual rats, 10 mg/kg): 236 ng/mL and 239 ng/mL and 385 ng/mL
- concentration in plasma, Mean ([3]; PO 10 mg/kg (equal to freebase), 0.25 h, mean n=3): 287 ng/mL
- concentration in plasma ([3]; PO 10 mg/kg (equal to freebase), 0.5 h, individual rats, 10 mg/kg): 225 ng/mL and 217 ng/mL and 356 ng/mL
- concentration in plasma, Mean ([3]; PO 10 mg/kg (equal to freebase), 0.5 h, mean n=3): 266 ng/mL
- concentration in plasma ([3]; PO 10 mg/kg (equal to freebase), 1 h, individual rats, 10 mg/kg): 130 ng/mL and 149 ng/mL and 173 ng/mL
- concentration in plasma, Mean ([3]; PO 10 mg/kg (equal to freebase), 1 h, mean n=3): 151 ng/mL
- concentration in plasma ([3]; PO 10 mg/kg (equal to freebase), 2 h, individual rats, 10 mg/kg): 135 ng/mL and 129 ng/mL and 115 ng/mL
- concentration in plasma, Mean ([3]; PO 10 mg/kg (equal to freebase), 2 h, mean n=3): 126 ng/mL
- concentration in plasma ([3]; PO 10 mg/kg (equal to freebase), 4 h, individual rats, 10 mg/kg): 109 ng/mL and 60.3 ng/mL and 79.2 ng/mL
- concentration in plasma, Mean ([3]; PO 10 mg/kg (equal to freebase), 4 h, mean n=3): 82.8 ng/mL
- concentration in plasma ([3]; PO 10 mg/kg (equal to freebase), 8 h, individual rats, 10 mg/kg): 44.3 ng/mL and 15.6 ng/mL and 14.1 ng/mL
- concentration in plasma, Mean ([3]; PO 10 mg/kg (equal to freebase), 8 h, mean n=3): 24.7 ng/mL
- concentration in plasma ([3]; PO 10 mg/kg (equal to freebase), 24 h, individual rats, 10 mg/kg): 0.356 ng/mL and BLOQ (BLOQ = below limit of quantitation (0.2 ng/mL)) (2×)
- Tmax ([3]; PO 10 mg/kg (equal to freebase), plasma, individual rats): 0.25 h
- AUCInf [3, 4]: 1217 ng·h/mL and 703 ng·h/mL and 837 ng·h/mL
- AUClast [3, 4]: 1216 ng·h/mL and 658 ng·h/mL and 798 ng·h/mL
- AUClast/D [3, 4]: 122 kg·ng·h/mL/mg and 65.8 kg·ng·h/mL/mg and 79.8 kg·ng·h/mL/mg
- AUC—% Extrap_obs [3, 4]: 0.101% and 6.34% and 4.66%
- Cmax [3, 4]: 236 ng/mL and 239 ng/mL and 385 ng/mL
- MRTInf_obs [3, 4]: 4.53 h and 2.86 h and 2.58 h
- T1/2 [3, 4]: 2.39 h and 1.98 h and 1.92 h
- AUCInf, Mean [3, 5]: 919 ng·h/mL
- AUClast, Mean [3, 5]: 891 ng·h/mL
- AUClast/D, Mean [3, 5]: 89 kg·ng·h/mL/mg
- AUC—% Extrap_obs, Mean [3, 5]: 3.70%
- Cmax, Mean [3, 5]: 287 ng/mL
- MRTInf_obs, Mean [3, 5]: 3.32 h
- T1/2, Mean [3, 5]: 2.09 h
- Tmax, Mean [3, 5]: 0.250 h
